Molecular target: T1, CFTR (Homo sapiens, UniProt P13569, DEL508-508)
T1 construct: Primary CF airway epithelial cells were obtained from the UNC Cystic Fibrosis Tissue Procurement and Cell Culture Core; host or cells: primary CF airway epithelial cells, differentiated at the air-liquid interface
Assay: Equivalent current assay in primary CF airway epithelial cells (NAUC, combination with 1st site corrector FDL169 or VX-809)
Assay type: cell-based
Conditions: 37° C., 24 h
Experimental: Primary CF airway epithelial cells were obtained from the UNC Cystic Fibrosis Tissue Procurement and Cell Culture Core. The cells are grown at 37° C. in a Heracell 150i incubator using growth media (BEGM, Fischer). […] Two days before the Ussing assay the mucus on the apical surface of the cells was aspirated after incubating with 200 μL of differentiation media for at least thirty (30) minutes. One day before the Ussing assay test compounds were added to the basolateral surface of the cells at various test concentrations dissolved in DMSO. Duplicate wells were prepared giving a n=3 or n=4 protocol.
Cells were treated for 24 hours with various combinations and concentrations of the test articles, reference standard (3 μM VX809 or 3 μM FDL169, positive control). Compounds stock solutions were prepared in DMSO and diluted 1/1000 into ALI media to their final assay concentration. Cells were treated with combination solutions (2 mL of each dilution) and incubated at 37° C. for 24 h.
For the equivalent current assay, cells on four Transwell (24-well) plates were treated. Each Transwell plate was filled with 200 μl of HBS on the apical surface and 2 ml on the basolateral surface. Plates were placed horizontally in a heated mount at 37° C., and equilibrated for several minutes. Resting current was measured for 15 min and then blocked by the apical addition of 5 μM benzamil. After 20 min, 10 μM forskolin and 1 μM VX770 were added to both the apical and basolateral side to stimulate CFTR. An increase in chloride current is seen as an upward deflection of the trace.
The raw data, current vs. time for the Ussing chamber (sampling interval: 10 s) and voltage vs. time and resistance vs. time for the equivalent current assay (sampling interval: 5 minutes) were transferred to Excel (Microsoft Office Professional, version 14.0.7106.5003) for analysis. […] This average is equivalent to the sum of the average forskolin activated and the average VX770-potentiated currents. The average current measured in vehicle (0.1% DMSO) treated cells, Iv, was subtracted from the current for the test article, ITA, or from the corrector reference standard VX809 (3 uM ISTD). For replicate measurements, the average vehicle subtracted response for the test article, was normalized to the average vehicle subtracted inhibitor response of the reference corrector VX809 (3 μM).
A second endpoint, for the equivalent current assay, evaluated was NAUC, the normalized area under the curve (AUC) measuring the response after addition of forskolin and VX770 to the time point right before the addition of the CFTR inhibitor. The AUC is effectively the average response multiplied by the duration of the response.
NAUCTA=[AUCTA−AUCV,ave]/[AUCVx809r,ave−AUCV,ave] (Equation 2).
Experiments were run with a minimum of n=4 replicates per concentration. Since the distribution for the ratio of two normal distributions is a Cauchy distribution, the median value must be used for the average and the average deviation must be used for the error of all normalized data.
E=Emin+(Emax−Emin)/(1+10^((LogEC5OS)*nH)) (Equation 3)

[1] = test compound 10 μM in combination with 1st site corrector VX-809 (3 μM)
[2] = test compound 1 μM in combination with 1st site corrector FDL169 (3 μM)
[3] = test compound 3 μM in combination with 1st site corrector FDL169 (3 μM)
[4] = test compound 10 μM in combination with 1st site corrector FDL169 (3 μM)
[5] = test compound 1 μM in combination with 1st site corrector VX-809 (3 μM)
[6] = test compound 3 μM in combination with 1st site corrector VX-809 (3 μM)

T1 sequence (P13569 with tags, fused parts or gaps DEL508-508): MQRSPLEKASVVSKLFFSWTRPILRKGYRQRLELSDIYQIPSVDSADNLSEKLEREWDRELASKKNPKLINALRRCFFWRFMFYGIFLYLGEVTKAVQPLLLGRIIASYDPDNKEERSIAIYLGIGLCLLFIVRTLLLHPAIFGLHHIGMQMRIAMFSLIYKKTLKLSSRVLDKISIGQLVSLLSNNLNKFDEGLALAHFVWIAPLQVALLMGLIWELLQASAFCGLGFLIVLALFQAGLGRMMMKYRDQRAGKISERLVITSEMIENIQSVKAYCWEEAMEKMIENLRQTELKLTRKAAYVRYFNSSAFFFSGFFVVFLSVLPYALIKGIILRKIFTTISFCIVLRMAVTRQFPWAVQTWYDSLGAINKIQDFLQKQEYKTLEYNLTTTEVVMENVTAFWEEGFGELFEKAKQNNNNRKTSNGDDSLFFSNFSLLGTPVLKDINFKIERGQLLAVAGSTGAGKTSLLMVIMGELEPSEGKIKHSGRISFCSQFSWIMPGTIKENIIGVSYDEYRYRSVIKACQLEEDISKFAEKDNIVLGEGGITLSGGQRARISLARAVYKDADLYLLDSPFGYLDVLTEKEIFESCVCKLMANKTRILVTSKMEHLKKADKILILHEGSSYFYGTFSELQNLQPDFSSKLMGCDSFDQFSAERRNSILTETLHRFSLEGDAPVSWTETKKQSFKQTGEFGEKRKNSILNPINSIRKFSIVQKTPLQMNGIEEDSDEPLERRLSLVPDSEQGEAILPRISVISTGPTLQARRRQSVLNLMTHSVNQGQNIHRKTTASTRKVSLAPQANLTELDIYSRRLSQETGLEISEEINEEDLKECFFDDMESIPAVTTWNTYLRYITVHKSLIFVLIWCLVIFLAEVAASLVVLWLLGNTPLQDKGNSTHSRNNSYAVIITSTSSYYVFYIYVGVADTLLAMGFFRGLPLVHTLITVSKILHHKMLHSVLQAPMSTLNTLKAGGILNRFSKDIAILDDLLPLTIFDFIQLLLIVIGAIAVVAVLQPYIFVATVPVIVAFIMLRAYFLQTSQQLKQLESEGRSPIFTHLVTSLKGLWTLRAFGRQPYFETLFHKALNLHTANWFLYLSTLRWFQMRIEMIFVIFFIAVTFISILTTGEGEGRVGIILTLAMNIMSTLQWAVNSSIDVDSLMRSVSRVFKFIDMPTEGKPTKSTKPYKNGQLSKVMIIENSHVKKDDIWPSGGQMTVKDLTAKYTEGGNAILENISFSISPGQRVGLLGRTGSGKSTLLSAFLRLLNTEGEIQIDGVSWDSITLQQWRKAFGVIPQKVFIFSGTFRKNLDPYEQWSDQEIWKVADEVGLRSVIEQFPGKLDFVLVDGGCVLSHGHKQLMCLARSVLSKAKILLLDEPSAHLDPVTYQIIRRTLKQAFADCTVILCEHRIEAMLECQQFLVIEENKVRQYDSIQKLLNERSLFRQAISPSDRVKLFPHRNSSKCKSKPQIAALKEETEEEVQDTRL

## CC(=O)OCOC(=O)[C@H]1[C@@H](C(=O)N(C)c2cc(Cl)cc(Cl)c2)[C@H]2CC(F)(F)CN2C12C(=O)Nc1c(Cl)cc(Cl)cc12 (mixture of isomers) [Example 257, acetoxymethyl (1′R,2′S,3R,7a′R)-5,7-dichloro-1-((3,5-dichlorophenyl)(methyl)carbamoyl)-6′,6′-difluoro-2-oxo-1′,2′,5′,6′,7′,7a′-hexahydrospiro[indoline-3,3′-pyrrolizine]-2′-carboxylate]
[1]
  Nauc @ 10 μM: +++ (NAUC “+++” refers to an observed NAUC>170% of positive control)

## O=C(O)[C@H]1[C@@H](C(=O)N(CC2CC2)c2cccc(-c3ccccc3)c2)[C@H]2CC(F)(F)CN2[C@]12C(=O)Nc1c(Cl)cc(Cl)cc12 [Example 156]
[2]
  Nauc @ 1 μM: +++ (NAUC “+++” refers to an observed NAUC>170% of positive control)
[3]
  Nauc @ 3 μM: +++ (NAUC “+++” refers to an observed NAUC>170% of positive control)
[4]
  Nauc @ 10 μM: ++ (NAUC “++” refers to an observed NAUC 170-140% of positive control)

## CN(C(=O)[C@H]1[C@H]2CC(F)(F)CN2[C@]2(C(=O)Nc3c2ccc(Cl)c3Cl)[C@H]1C(=O)O)c1cc(Cl)cc(Cl)c1 (racemic) [Example 100, rac-(1′R,2′S,7a′R)-6,7-dichloro-1-((3,5-dichlorophenyl)(methyl)carbamoyl)-6′,6′-difluoro-2-oxo-1′,2′,5′,6′,7′,7a′-hexahydrospiro[indoline-3,3′-pyrrolizine]-2′-carboxylic acid]
[5]
  Nauc @ 1 μM: + (NAUC “+” refers to an observed NAUC <140% of positive control)
[6]
  Nauc @ 3 μM: + (NAUC “+” refers to an observed NAUC <140% of positive control)
[1]
  Nauc @ 10 μM: + (NAUC “+” refers to an observed NAUC <140% of positive control)

## CC(C)C1NC2(C(=O)Nc3c(Cl)cc(Cl)cc32)C(C(=O)O)C1C(=O)Nc1cc(Cl)cc(Cl)c1 (stereo not drawn) [Example 33]
[6]
  Nauc @ 3 μM: +++ (NAUC “+++” refers to an observed NAUC>170% of positive control)
[1]
  Nauc @ 10 μM: +++ (NAUC “+++” refers to an observed NAUC>170% of positive control)

## Cn1ccc2cc(NC(=O)[C@H]3[C@H]4CC(F)(F)CN4[C@]4(C(=O)Nc5c(Cl)cc(Cl)cc54)[C@H]3C(=O)O)ccc21 [Example 137]
[2]
  Nauc @ 1 μM: + (NAUC “+” refers to an observed NAUC <140% of positive control)
[3]
  Nauc @ 3 μM: + (NAUC “+” refers to an observed NAUC <140% of positive control)

## O=C(O)[C@H]1[C@@H](C(=O)N(CC2CC2)c2cccc(C(F)(F)F)c2)[C@H]2CC(F)(F)CN2[C@]12C(=O)Nc1c(Cl)cc(Cl)cc12 [Example 163]
[2]
  Nauc @ 1 μM: +++ (NAUC “+++” refers to an observed NAUC>170% of positive control)
[3]
  Nauc @ 3 μM: +++ (NAUC “+++” refers to an observed NAUC>170% of positive control)
[4]
  Nauc @ 10 μM: ++ (NAUC “++” refers to an observed NAUC 170-140% of positive control)

## O=C(O)[C@@H]1[C@H](C(=O)N(CC2CC2)c2cc(Cl)cc(Cl)c2)[C@H](C(F)(F)F)NC12C(=O)Nc1c(Cl)cc(Cl)cc12 (single isomer, unassigned) [Example 270a]
[2]
  Nauc @ 1 μM: +++ (NAUC “+++” refers to an observed NAUC>170% of positive control)
[3]
  Nauc @ 3 μM: +++ (NAUC “+++” refers to an observed NAUC>170% of positive control)
[4]
  Nauc @ 10 μM: ++ (NAUC “++” refers to an observed NAUC 170-140% of positive control)

## CN(C(=O)[C@H]1[C@H]2CC(F)(F)CN2C2(C(=O)Nc3c(Cl)cccc32)[C@H]1C(=O)O)c1cc(Cl)cc(Cl)c1 (stereo partly drawn) [Example 104]
[4]
  Nauc @ 10 μM: + (NAUC “+” refers to an observed NAUC <140% of positive control)

## O=C(O)[C@H]1[C@@H](C(=O)N(CC23CC(F)(C2)C3)c2cc(Cl)cc(Cl)c2)[C@H]2CC(F)(F)CN2[C@]12C(=O)Nc1c(Cl)cc(Cl)cc12 [Example 188]
[2]
  Nauc @ 1 μM: +++ (NAUC “+++” refers to an observed NAUC>170% of positive control)
[3]
  Nauc @ 3 μM: ++ (NAUC “++” refers to an observed NAUC 170-140% of positive control)
[4]
  Nauc @ 10 μM: ++ (NAUC “++” refers to an observed NAUC 170-140% of positive control)

## O=C(Nc1cccc2cccnc12)[C@H]1[C@H]2CC(F)(F)CN2[C@]2(C(=O)Nc3c(Cl)cc(Cl)cc32)[C@H]1C(=O)O [Example 127]
[5]
  Nauc @ 1 μM: + (NAUC “+” refers to an observed NAUC <140% of positive control)
[6]
  Nauc @ 3 μM: + (NAUC “+” refers to an observed NAUC <140% of positive control)

## O=C(O)[C@H]1[C@@H](C(=O)N(CC2CC2)c2cccc(CC(F)(F)F)c2)[C@H]2CC(F)(F)CN2[C@]12C(=O)Nc1c(Cl)cc(Cl)cc12 [Example 164]
[2]
  Nauc @ 1 μM: +++ (NAUC “+++” refers to an observed NAUC>170% of positive control)
[3]
  Nauc @ 3 μM: +++ (NAUC “+++” refers to an observed NAUC>170% of positive control)
[4]
  Nauc @ 10 μM: +++ (NAUC “+++” refers to an observed NAUC>170% of positive control)

## Cc1nc2ccc(NC(=O)[C@H]3[C@H]4CC(F)(F)CN4[C@]4(C(=O)Nc5c(Cl)cc(Cl)cc54)[C@H]3C(=O)O)cc2s1 [Example 118]
[5]
  Nauc @ 1 μM: + (NAUC “+” refers to an observed NAUC <140% of positive control)
[6]
  Nauc @ 3 μM: + (NAUC “+” refers to an observed NAUC <140% of positive control)
[1]
  Nauc @ 10 μM: + (NAUC “+” refers to an observed NAUC <140% of positive control)

## O=C(O)[C@H]1[C@@H](C(=O)N(CC23CC4CC(CC(C4)C2)C3)c2cc(Cl)cc(Cl)c2)[C@H]2CC(F)(F)CN2[C@]12C(=O)Nc1c(Cl)cc(Cl)cc12 [Example 194]
[2]
  Nauc @ 1 μM: ++ (NAUC “++” refers to an observed NAUC 170-140% of positive control)
[3]
  Nauc @ 3 μM: +++ (NAUC “+++” refers to an observed NAUC>170% of positive control)

## Cc1nn(-c2ccccc2)cc1N(CC1CC1)C(=O)[C@H]1[C@H]2CC(F)(F)CN2[C@]2(C(=O)Nc3c(Cl)cc(Cl)cc32)[C@H]1C(=O)O [Example 167]
[2]
  Nauc @ 1 μM: + (NAUC “+” refers to an observed NAUC <140% of positive control)
[3]
  Nauc @ 3 μM: + (NAUC “+” refers to an observed NAUC <140% of positive control)

## O=C(Nc1cc(Cl)cc(Cl)c1)C1C(C(F)(F)c2ccc(C(F)(F)F)cc2)NC2(C(=O)Nc3c(Cl)cc(Cl)cc32)C1C(=O)O (stereo not drawn) [Example 73.b]
[1]
  Nauc @ 10 μM: + (NAUC “+” refers to an observed NAUC <140% of positive control)

## CN(C(=O)[C@H]1[C@H]2CC(F)(F)CN2[C@]2(C(=O)N(COC(=O)C(C)(C)C)c3c(Cl)cc(Cl)cc32)[C@H]1C(=O)OCOC(=O)C(C)(C)C)c1cc(Cl)cc(Cl)c1 (racemic) [Example 251c, rac-(pivaloyloxy)methyl (1′R,2′S,3R,7a′R)-5,7-dichloro-1-((3,5-dichlorophenyl)(methyl)carbamoyl)-6′,6′-difluoro-2-oxo-1-((pivaloyloxy)methyl)-1′,2′,5′,6′,7′,7a′-hexahydrospiro[indoline-3,3′-pyrrolizine]-2′-carboxylate]
[1]
  Nauc @ 10 μM: + (NAUC “+” refers to an observed NAUC <140% of positive control)

## Cn1ccc2ccc(NC(=O)[C@H]3[C@H]4CC(F)(F)CN4[C@]4(C(=O)Nc5c(Cl)cc(Cl)cc54)[C@H]3C(=O)O)cc21 [Example 136]
[2]
  Nauc @ 1 μM: + (NAUC “+” refers to an observed NAUC <140% of positive control)
[3]
  Nauc @ 3 μM: + (NAUC “+” refers to an observed NAUC <140% of positive control)

## O=C(Nc1ncnc2ccccc12)[C@H]1[C@H]2CC(F)(F)CN2[C@]2(C(=O)Nc3c(Cl)cc(Cl)cc32)[C@H]1C(=O)O [Example 144]
[2]
  Nauc @ 1 μM: + (NAUC “+” refers to an observed NAUC <140% of positive control)
[3]
  Nauc @ 3 μM: + (NAUC “+” refers to an observed NAUC <140% of positive control)

— patent US20230055237A1, “COMPOUNDS AND METHODS FOR THE TREATMENT OF CYSTIC FIBROSIS” (Flatley Discovery Lab, LLC, priority 2019, published 2023)
